These results are taken from ChEMBL document CHEMBL1687887, “Evolution of potent and stable placental-growth-factor-1-targeting CovX-bodies from phage display peptide discovery” (J Med Chem, 2011).

Each structure is given as a SMILES string. Calls of active or inactive are those of the source. The calls are words filed in the database; no cut-off is given here. Numbered stars: 1 amine (or outer) side, 2 acyl side, 3 side chain; on linkers, the order of the positions; unused ones are H or OH. Bridge positions count the residues as written; N and C are the ends. Square brackets hold non-standard residues; d marks the D form. Peptide text beside a SMILES is read from it. * marks the point of attachment. X2 = NCCCC[C@H](N[*:1])C(=O)NC(=O)COCC(=O)[*:2]; X1 = O=C(COCC(=O)*)Nc1ccc(CCC(=O)N2CCC2=O)cc1; X3 = O=C(CCc1ccc(N*)cc1)N1CCC1=O; NMeE = CN[C@@H](CCC(=O)O)C(=O)O; Aib = CC(C)(N)C(=O)O

A short description of series [1]: Terminal half life in Swiss Webster mouse at 10 mg/kg, iv. The format is ADME, organism-based. Also on record: dose 10 mg/kg, route intravenous. The following applies: in vivo, read-out: beta t1/2 (converted).
The target in series [2] is T1, Placenta growth factor (Homo sapiens, UniProt P49763).
T1 sequence (P49763 whole entry): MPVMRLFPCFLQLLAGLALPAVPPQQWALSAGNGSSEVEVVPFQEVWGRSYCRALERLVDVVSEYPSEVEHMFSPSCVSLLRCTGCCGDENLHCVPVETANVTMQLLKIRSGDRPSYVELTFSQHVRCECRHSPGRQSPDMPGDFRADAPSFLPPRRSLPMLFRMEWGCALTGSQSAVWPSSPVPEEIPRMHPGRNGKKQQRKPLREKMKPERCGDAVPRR
The series is described as follows: Binding affinity to human PlGF-1. The following applies: read-out: Kd.

The target in series [3] is T1, Placenta growth factor. The series is described as follows: Binding affinity to human PlGF-2.
The target of series [4] is T1, Placenta growth factor. Nature of the series: Inhibition of human PlGF-1-VEGFR-1 interaction by ELISA.
Series [5] is described as follows: Stability of the compound in presence of cathepsin B. The format is ADME.
For series [6], the target named is T2, Placenta growth factor (Mus musculus, UniProt P49764).
T2 sequence (P49764 whole entry): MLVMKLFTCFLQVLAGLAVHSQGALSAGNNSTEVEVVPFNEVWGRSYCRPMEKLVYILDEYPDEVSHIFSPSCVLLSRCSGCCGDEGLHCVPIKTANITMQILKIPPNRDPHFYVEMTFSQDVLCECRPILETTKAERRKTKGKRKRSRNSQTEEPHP
The series is described as follows: Binding affinity to mouse PlGF.

Series [7] can be described thus: Terminal half life in cynomolgus monkey at 10 mg/kg, iv. The note with it: in vivo, read-out: beta t1/2 (converted). It counts as ADME, organism-based, Macaca fascicularis. Details: dose 10 mg/kg, route intravenous.
A short description of series [8]: Stability in Swiss Webster mouse serum assessed as functional compound remaining after 6 hrs. It counts as ADME, cell-free. The following applies: read-out: Stability.
For series [9], the target named is T3, Placenta growth factor (Homo sapiens) (UniProt P49763).
T3 sequence (whole entry): T1 sequence (P49763 whole entry)
The series is described as follows: Binding affinity to human PlGF-1 by surface plasmon resonance study. (Surface plasmon resonance follows binding to a sensor surface in real time, without labels.)

Series [10] deals with T2, Placenta growth factor. Nature of the series: (§1) Inhibition of mouse PlGF-VEGFR-1 interaction by ELISA. (ELISA stands for enzyme-linked immunosorbent assay.)
In series [11] the target is T3, Placenta growth factor (Homo sapiens). The series is described as follows: Binding affinity to human PlGF-2 by surface plasmon resonance study.
The target of series [12] is T4, Placenta growth factor (Mus musculus) (UniProt P49764).
T4 sequence (whole entry): T2 sequence (P49764 whole entry)
Described as §1.

Series [13] deals with T1, Placenta growth factor. Nature of the series: Inhibition of human PlGF-2-VEGFR-1 interaction by ELISA.
For series [14], the target named is T4, Placenta growth factor (Mus musculus). The series is described as follows: Inhibition of mouse PlGF interaction with human VEGFR-1 by ELISA.

For orientation: Kd means the equilibrium constant for the complex coming apart. What is called IC50 is the concentration at which inhibition is half-maximal. For the compound `CC[C@H](C)[C@@H]1NC(=O)[C@H](Cc2ccc(O)cc2)NC(=O)[C@H](Cc2cnc[nH]2)NC(=O)[C@@H](NC(=O)[C@@H](NC(=O)[C@H](CCC(=O)O)N(C)C(=O)[C@H](Cc2ccccc2)NC(=O)[C@H](C)NC(=O)[C@H](C)NC(=O)[C@H](CC(=O)O)NC(=O)[C@H](C)NC(C)=O)C(C)C)CSSC[C@@H](C(=O)N[C@H](C(=O)N[C@@H](CCCCNC(C)=O)C(=O)NC(C)(C)C(N)=O)[C@@H](C)O)NC(=O)[C@H](Cc2cnc[nH]2)NC(=O)C(C)(C)NC(=O)[C@H](CC(C)C)NC(=O)[C@H](CCCCNC(=O)COCC(=O)Nc2ccc(CCC(=O)N3CCC3=O)cc2)NC1=O` (Ac-ADAAF[NMeE]VCHYIK(X1)L[Aib]HCTK(Ac)[Aib]-NH2; disulfide 8-16), the half-life in [1] is 75 h; in series [7], 78 h. The Kd on Placenta growth factor [2] is 0.1 nM; on Placenta growth factor [3] it was 9 nM; at Placenta growth factor [6], 70 nM. The same compound displayed an IC50 against Placenta growth factor [4] of 0.4 nM. The Stability result in [5] was “Stable”.
Turning to `CSCC[C@H](NC(=O)[C@H](CCCCNC(=O)COCC(=O)Nc1ccc(CCC(=O)N2CCC2=O)cc1)NC(=O)[C@H](CCCCNC(C)=O)NC(=O)[C@@H]1CSSC[C@H](NC(=O)[C@@H](NC(=O)[C@H](CC(=O)O)NC(=O)[C@H](Cc2ccccc2)NC(C)=O)C(C)C)C(=O)N[C@@H](CC(N)=O)C(=O)N[C@@H](Cc2c[nH]c3ccccc23)C(=O)N[C@@H](C(C)C)C(=O)N[C@@H]([C@@H](C)O)C(=O)N[C@@H](CC(C)C)C(=O)N2CCC[C@H]2C(=O)N[C@@H](Cc2cnc[nH]2)C(=O)N1)C(N)=O` (Ac-FDVCNWVTLPHCK(Ac)K(X1)M-NH2; disulfide 4-12), the remaining at 6 h in [8] is below 5%. Also, the outcome in series [9] and in series [11] was Active. Also, the IC50 against Placenta growth factor [10] and against Placenta growth factor [4] was 4 nM each time. Further, the Kd at Placenta growth factor [2] came to 5 nM.
Turning to `CSCC[C@H](NC(=O)[C@@H](NC(=O)[C@H](CCCCN)NC(=O)[C@@H]1CSSC[C@H](NC(=O)[C@@H](NC(=O)[C@H](CC(=O)O)NC(=O)[C@H](Cc2ccccc2)NC(C)=O)C(C)C)C(=O)N[C@@H](CCCCN)C(=O)N[C@@H](Cc2c[nH]c3ccccc23)C(=O)N[C@@H](C(C)C)C(=O)N[C@@H]([C@@H](C)O)C(=O)N[C@@H](CC(C)C)C(=O)N2CCC[C@H]2C(=O)N[C@@H](Cc2cnc[nH]2)C(=O)N1)C(C)C)C(=O)N[C@@H](CCCCN)C(=O)NC(=O)COCC(=O)Nc1ccc(CCC(=O)N2CCC2=O)cc1` (Ac-FDVCKWVTLPHCKVM[X2]-X3; disulfide 4-12), the inhibition result in [12] and in series [14] was “inactive” in each case. Further, the figures for the Kd at Placenta growth factor [2], at Placenta growth factor [3] and on Placenta growth factor [6] were 4 nM, 100 nM and 400 nM, respectively. The IC50 against Placenta growth factor [13] was 150 nM; against Placenta growth factor [4], 2 nM.
